Source: ChEMBL document CHEMBL5532682, “Recent advances of tryptanthrin and its derivatives as potential anticancer agents” (RSC Med Chem, 2024)
pIC50: −log10 of the molar value.

Columns and labels:
[1] = tested on: MCF7; test: Antiproliferative activity against human MCF7 cells assessed as inhibition of cell growth; assay type: functional, cell-based
[2] = tested on: HeLa; test: Antiproliferative activity against human HeLa cells assessed as inhibition of cell growth; assay type: functional, cell-based
[3] = tested on: A549; test: Antiproliferative activity against human A549 cells assessed as inhibition of cell growth; assay type: functional, cell-based
[4] = Cytotoxicity against human HEK293 cells assessed as inhibition of cell growth; assay type: toxicity, cell-based
[5] = tested on: DU-145; test: Growth inhibition of human DU-145 cells assessed as reduction in cell viability; assay type: functional
[6] = tested on: U-251; test: Growth inhibition of human U-251 cells assessed as reduction in cell viability; assay type: functional
[7] = tested on: SW-620; test: Growth inhibition of human SW620 cells assessed as reduction in cell viability; assay type: functional
[8] = tested on: NCI/ADR-RES; test: Growth inhibition of human MCF7ADR cells assessed as reduction in cell viability; assay type: functional
[9] = tested on: NCI-H522; test: Growth inhibition of human NCI-H522 cells assessed as reduction in cell viability; assay type: functional
[10] = tested on: A498; test: Growth inhibition of human A498 cells assessed as reduction in cell viability; assay type: functional
[11] = tested on: M14; test: Growth inhibition of human M14 cells assessed as reduction in cell viability; assay type: functional
[12] = tested on: SK-OV-3; test: Growth inhibition of human SK-OV-3 cells assessed as reduction in cell viability; assay type: functional
[13] = tested on: A549; test: Antiproliferative activity against human A549 cells incubated by 48 hrs by MTT assay; assay type: functional, cell-based; conditions: A549, 48 h
[14] = tested on: PC-3; test: Antiproliferative activity against human PC-3 cells incubated by 48 hrs by MTT assay; assay type: functional, cell-based; conditions: PC-3, 48 h
[15] = tested on: K562; test: Antiproliferative activity against human K562 cells incubated by 48 hrs by MTT assay; assay type: functional, cell-based; conditions: K562, 48 h
[16] = tested on: HepG2; test: Antiproliferative activity against human HepG2 cells incubated by 48 hrs by MTT assay; assay type: functional, cell-based; conditions: HepG2, 48 h
[17] = tested on: HT-29; test: Antiproliferative activity against human HT-29 cells; assay type: functional, cell-based
[18] = tested on: MDA-MB-231; test: Antiproliferative activity against human MDA-MB-231 cells; assay type: functional, cell-based
[19] = Cytotoxicity activity against human HDF cells; assay type: toxicity, cell-based; conditions: HDF cells (NHDF)
[20] = tested on: PANC-1; test: Antiproliferative activity against human PANC-1 cells; assay type: functional, cell-based
[21] = Antiproliferative activity against human HL7702 cells assessed as inhibition of cell viability; assay type: toxicity, cell-based; conditions: HL7702 (L02) cells
[22] = tested on: A549/CDDP; test: Antiproliferative activity against human A549/DDP cells assessed as inhibition of cell viability; assay type: functional, cell-based
[23] = tested on: A549; test: Antiproliferative activity against human A549 cells assessed as inhibition of cell viability; assay type: functional, cell-based
[24] = tested on: Hep 3B2; test: Antiproliferative activity against human Hep3B cells measured after 48 hrs by MTT assay; assay type: functional, cell-based
[25] = tested on: HeLa; test: Antiproliferative activity against human HeLa cells incubated for 48 hrs; assay type: functional, cell-based
[26] = tested on: CT26; test: Antiproliferative activity against mouse CT26 cells incubated for 48 hrs; assay type: functional, cell-based; conditions: CT26, 48 h
[27] = tested on: K562; test: Antiproliferative activity against human K562 cells incubated for 48 hrs; assay type: functional, cell-based; conditions: K562, 48 h

Compound: O=C1C2C=CC=CC2=NC2/C(=N\Nc3nc(-c4ccc(F)cc4)cs3)c3ccccc3N12 (stereo not drawn)
- pIC50 [1]: 4.99
- pIC50 [2]: 5.02
- pIC50 [3]: 5.18
- pIC50 [4]: 4.06

Compound: O=c1c2ccccc2nc2n1-c1ccccc1[C@@]2(O)OCCOc1ccccc1
- GI50 [5]: > 100 µM
- GI50 [6]: > 100 µM
- GI50 [7]: > 100 µM
- GI50 [8]: > 100 µM
- GI50 [9]: > 100 µM
- GI50 [10]: > 100 µM
- GI50 [11]: > 100 µM
- GI50 [12]: > 100 µM

Compound: O=C1c2ccccc2-n2c1nc1cccc(F)c1c2=O
- pIC50 [13]: 5.26
- pIC50 [14]: 4.91
- pIC50 [15]: 5.16
- pIC50 [16]: 5.20

Compound: Cc1nn(Br)c2c1[C@@]1(C(C#N)=CO2)c2cc(-c3cccc(Cl)c3)ccc2-n2c1nc1ccccc1c2=O
- pIC50 [17]: 4.19
- pIC50 [18]: 4.09
- pIC50 [19]: < 4.00
- pIC50 [20]: 4.02

Compound: O=C(CCCCN(Cc1ccccn1)Cc1ccccn1)Nc1ccc2c(c1)C(=O)c1nc3ccccc3c(=O)n1-2
- pIC50 [21]: < 4.00
- pIC50 [22]: 4.28
- pIC50 [23]: 4.20

Compound: O=C1c2cc(C(F)(F)F)ccc2-n2c1nc1ccccc1c2=O
- pIC50 [24]: 5.47

Compound: O=C1c2cc(F)c(F)cc2-n2c1nc1ccccc1c2=O
- pIC50 [13]: 5.67
- pIC50 [14]: 4.98
- pIC50 [15]: 5.48
- pIC50 [16]: 5.01

Compound: CCCC[C@]1(O)c2ccccc2-n2c1nc1ccccc1c2=O
- GI50 [5]: > 100 µM
- GI50 [6]: > 100 µM
- GI50 [7]: > 100 µM
- GI50 [8]: > 100 µM
- GI50 [9]: > 100 µM
- GI50 [10]: > 100 µM
- GI50 [11]: > 100 µM
- GI50 [12]: > 100 µM

Compound: N#Cc1ccc(-c2csc(N/N=C3/c4ccccc4N4C(=O)C5C=CC=CC5=NC34)n2)cc1 (stereo not drawn)
- pIC50 [1]: 5.22
- pIC50 [2]: 5.15
- pIC50 [3]: 5.09
- pIC50 [4]: 4.03

Compound: Cc1ccc2c(c1)[C@@]1(N[C@H](C(=O)NCC(=O)O)[C@]3(c4ccccc4)[C@@H](c4ccccc4)[C@]13c1ccccc1)c1nc3ccccc3c(=O)n1-2
- pIC50 [25]: < 4.30
- pIC50 [26]: < 4.30
- pIC50 [27]: 4.99
